Data taken from ChEMBL document CHEMBL1201862, “PubChem BioAssay data set” (2004).
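A five-concentration, 48-hour dose response in 96-well plates underlies each endpoint, interpolated linearly between surrounding concentrations. The concentration for 50% growth inhibition is given as GI50.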 Calls of active or inactive are those of the source. Rule as the data show it: active = GI50 up to about 1.1 µM and inactive = higher.

What was measured:
Test in all cases: DTP human tumour cell line panel, 48 h
[1] = tested on: SNB-78
[2] = tested on: KM-20L2
[3] = tested on: DMS-273
[4] = tested on: HOP-18
[5] = tested on: DMS-114
[6] = tested on: LXFL 529
[7] = tested on: M19-MEL
[8] = tested on: RXF 631
[9] = tested on: XF498

CCOC(=O)/C(=C\c1ccccc1)C(=O)CCN1CCOCC1
GI50 [1]: 11.6 µM (inactive)
GI50 [2]: 9.89 µM (inactive)
GI50 [3]: 10.4 µM (inactive)
GI50 [4]: 13.9 µM (inactive)
GI50 [5]: 4.92 µM (inactive)
GI50 [6]: 1.84 µM (inactive)
GI50 [7]: 3.62 µM (inactive)
GI50 [8]: 11.3 µM (inactive)

O=C1OC2CCCC[C@@H]2C2C[C@]34CCCCC3[C@@H](C(=O)O4)C12 (some centres not stated)
GI50 [1]: > 100 µM (inactive)
GI50 [2]: > 100 µM (inactive)
GI50 [4]: > 100 µM (inactive)
GI50 [5]: > 100 µM (inactive)
GI50 [9]: > 100 µM (inactive)
GI50 [6]: > 100 µM (inactive)
GI50 [7]: > 100 µM (inactive)

CC(=O)OCC1OC(NC(=S)N/N=C2\CC(c3ccccc3)Oc3ccccc32)C(OC(C)=O)C(OC(C)=O)C1OC(C)=O (configuration not stated)
GI50 [1]: > 100 µM (inactive)
GI50 [2]: > 100 µM (inactive)
GI50 [3]: 56.8 µM (inactive)
GI50 [4]: > 100 µM (inactive)
GI50 [5]: > 100 µM (inactive)
GI50 [9]: > 100 µM (inactive)
GI50 [6]: > 100 µM (inactive)
GI50 [7]: > 100 µM (inactive)
GI50 [8]: 32 µM (inactive)

O=C1OC(c2ccccc2)=N/C1=C/NC(Cc1ccc(O)cc1)C(=O)O (configuration not stated)
GI50 [1]: > 100 µM (inactive)
GI50 [2]: > 100 µM (inactive)
GI50 [3]: > 100 µM (inactive)
GI50 [4]: 36.1 µM (inactive)
GI50 [5]: > 100 µM (inactive)
GI50 [9]: > 100 µM (inactive)
GI50 [6]: > 100 µM (inactive)

Nc1ccccc1C(=O)CCC1C(=O)NC(=S)NC1=O
GI50 [2]: > 100 µM (inactive)
GI50 [3]: > 100 µM (inactive)
GI50 [4]: > 100 µM (inactive)
GI50 [5]: > 100 µM (inactive)
GI50 [6]: > 100 µM (inactive)
GI50 [7]: > 100 µM (inactive)
GI50 [8]: > 100 µM (inactive)

O=C(c1ccc(Cl)cc1)N(C(=S)N1CCN(c2ccccc2)CC1)c1ccccc1
GI50 [1]: > 100 µM (inactive)
GI50 [2]: > 100 µM (inactive)
GI50 [3]: > 100 µM (inactive)
GI50 [4]: > 100 µM (inactive)
GI50 [6]: > 100 µM (inactive)
GI50 [7]: > 100 µM (inactive)

O=C(CC(=O)C(=O)CC(=O)OCc1ccccc1)OCc1ccccc1
GI50 [2]: > 100 µM (inactive)
GI50 [5]: > 100 µM (inactive)
GI50 [6]: > 100 µM (inactive)
GI50 [7]: > 100 µM (inactive)

CC(Cl)(/C=C/Cl)C(Cl)/C=C/C(Cl)(CCl)CBr (configuration not stated)
GI50 [1]: 1.75 µM (inactive)
GI50 [2]: 5.22 µM (inactive)
GI50 [3]: 3.63 µM (inactive)
GI50 [4]: 2.52 µM (inactive)
GI50 [5]: 1.96 µM (inactive)
GI50 [6]: 1.22 µM (inactive)
GI50 [7]: 3.12 µM (inactive)
GI50 [8]: 1.91 µM (inactive)

O=C(CC(=O)N1N=C(N2c3ccccc3Sc3ccccc32)CC1c1ccccc1)Nc1ccc(Cl)cc1 (configuration not stated)
GI50 [1]: > 100 µM (inactive)
GI50 [2]: > 100 µM (inactive)
GI50 [3]: > 100 µM (inactive)
GI50 [4]: > 100 µM (inactive)
GI50 [5]: > 100 µM (inactive)
GI50 [9]: > 100 µM (inactive)
GI50 [6]: > 100 µM (inactive)
GI50 [7]: > 100 µM (inactive)

O=C(Nc1nc2ncn(CC(COc3ccccc3)OC(=O)c3ccccc3)c2c(=O)[nH]1)c1ccccc1 (configuration not stated)
GI50 [2]: > 100 µM (inactive)
GI50 [3]: > 100 µM (inactive)
GI50 [5]: > 100 µM (inactive)
GI50 [9]: > 100 µM (inactive)
GI50 [7]: > 100 µM (inactive)
GI50 [8]: > 100 µM (inactive)

CCOC(=O)C1=C(C)N(Cc2ccccc2)C(C)=C(C(=O)OCC)C1c1ccccc1O
GI50 [2]: 41 µM (inactive)
GI50 [3]: 32.7 µM (inactive)
GI50 [4]: 44.2 µM (inactive)
GI50 [5]: 17.9 µM (inactive)
GI50 [9]: 21.5 µM (inactive)
GI50 [6]: 26.5 µM (inactive)
GI50 [7]: 27.4 µM (inactive)
GI50 [8]: 22.5 µM (inactive)

CC(C(=O)O)/C(=C\c1ccc2c(c1)OCO2)C(=O)O (configuration not stated)
GI50 [2]: > 100 µM (inactive)
GI50 [3]: > 100 µM (inactive)
GI50 [4]: > 100 µM (inactive)
GI50 [5]: > 100 µM (inactive)
GI50 [9]: > 100 µM (inactive)
GI50 [6]: > 100 µM (inactive)
GI50 [7]: > 100 µM (inactive)
GI50 [8]: > 100 µM (inactive)

c1ccc2c(c1)oc1ccc3nsnc3c12
GI50 [2]: > 100 µM (inactive)
GI50 [3]: > 100 µM (inactive)
GI50 [4]: > 100 µM (inactive)
GI50 [5]: > 100 µM (inactive)
GI50 [6]: > 100 µM (inactive)
GI50 [7]: > 100 µM (inactive)
GI50 [8]: 46.9 µM (inactive)

COc1cc(Br)c(/C=N\c2cccc3cc(OC)c(OC)cc23)cc1OC
GI50 [1]: 55.8 µM (inactive)
GI50 [2]: 55.6 µM (inactive)
GI50 [3]: 43.4 µM (inactive)
GI50 [4]: > 100 µM (inactive)
GI50 [5]: 17.2 µM (inactive)
GI50 [6]: 25.9 µM (inactive)
GI50 [7]: 41.6 µM (inactive)
GI50 [8]: 50.5 µM (inactive)

C[N+]1(C)C/C(=C\c2ccccc2)C(=O)/C(=C/c2ccccc2)C1
GI50 [1]: > 100 µM (inactive)
GI50 [2]: > 100 µM (inactive)
GI50 [3]: 37.5 µM (inactive)
GI50 [4]: > 100 µM (inactive)
GI50 [5]: 39.5 µM (inactive)
GI50 [9]: > 100 µM (inactive)
GI50 [6]: 70.1 µM (inactive)
GI50 [7]: 32.7 µM (inactive)
GI50 [8]: > 100 µM (inactive)

O=C(O)c1oc2ccc([N+](=O)[O-])c3c2c1CCC3
GI50 [1]: > 100 µM (inactive)
GI50 [2]: > 100 µM (inactive)
GI50 [3]: > 100 µM (inactive)
GI50 [4]: > 100 µM (inactive)
GI50 [5]: > 100 µM (inactive)
GI50 [9]: 24.4 µM (inactive)
GI50 [6]: > 100 µM (inactive)
GI50 [7]: > 100 µM (inactive)

COC(=O)C1(C(C)C)CCc2c(OC)ccc(OC)c2C1=O (configuration not stated)
GI50 [1]: > 100 µM (inactive)
GI50 [2]: > 100 µM (inactive)
GI50 [4]: > 100 µM (inactive)
GI50 [5]: > 100 µM (inactive)
GI50 [9]: > 100 µM (inactive)
GI50 [6]: > 100 µM (inactive)
GI50 [7]: > 100 µM (inactive)

NCCNCCNCc1c2ccccc2c(CNCCNCCN)c2ccccc12
GI50 [1]: 98.6 µM (inactive)
GI50 [2]: 41.4 µM (inactive)
GI50 [4]: 49.8 µM (inactive)
GI50 [5]: 46.9 µM (inactive)
GI50 [9]: 72.9 µM (inactive)
GI50 [6]: 57.8 µM (inactive)
GI50 [7]: 59 µM (inactive)

O=C1C(Cl)=C(N2CCN(CCOCCO)CC2)C(=O)c2ccccc21
GI50 [1]: 15.3 µM (inactive)
GI50 [2]: 18 µM (inactive)
GI50 [3]: 16.9 µM (inactive)
GI50 [4]: 16.3 µM (inactive)
GI50 [9]: 2.55 µM (inactive)
GI50 [6]: 1.79 µM (inactive)
GI50 [7]: 3.82 µM (inactive)

c1ccc(C2CC(c3ccc4ccccc4c3)=Nc3ccccc3S2)cc1 (configuration not stated)
GI50 [1]: 18.6 µM (inactive)
GI50 [2]: 18.3 µM (inactive)
GI50 [3]: 21.3 µM (inactive)
GI50 [4]: 19.4 µM (inactive)
GI50 [9]: 17.4 µM (inactive)
GI50 [6]: 14.5 µM (inactive)
GI50 [7]: 18.7 µM (inactive)
GI50 [8]: 24.3 µM (inactive)

CN(C)CCNC(=O)c1cccc2nc3ccc4ccccc4c3nc12
GI50 [1]: 0.138 µM (active)
GI50 [3]: 0.0362 µM (active)
GI50 [4]: 0.197 µM (active)
GI50 [5]: 0.121 µM (active)
GI50 [7]: 0.0946 µM (active)
GI50 [8]: 0.0405 µM (active)

CC(=O)O/C(C)=C\C(=O)O/N=C(\N)c1ccc(C)cc1
GI50 [1]: 21.1 µM (inactive)
GI50 [2]: 33.7 µM (inactive)
GI50 [3]: 28.4 µM (inactive)
GI50 [4]: 26.2 µM (inactive)
GI50 [5]: 18.8 µM (inactive)
GI50 [9]: 23.9 µM (inactive)
GI50 [6]: 19.5 µM (inactive)
GI50 [8]: 22.5 µM (inactive)

CSC1(C)CC2C(CC1N1CCCCC1)C2(C)C (configuration not stated)
GI50 [1]: > 100 µM (inactive)
GI50 [3]: > 100 µM (inactive)
GI50 [4]: > 100 µM (inactive)
GI50 [9]: > 100 µM (inactive)
GI50 [6]: > 100 µM (inactive)
GI50 [7]: > 100 µM (inactive)

CSc1ccc2c(cc1=O)C(NC(=O)c1cc(O)c(OC(=O)O)c(O)c1)CCc1cc(O)c(O)c(O)c1-2 (configuration not stated)
GI50 [1]: 33.3 µM (inactive)
GI50 [2]: 24.9 µM (inactive)
GI50 [3]: 17 µM (inactive)
GI50 [4]: > 89.9 µM (inactive)
GI50 [5]: 15.2 µM (inactive)
GI50 [6]: 16.5 µM (inactive)
GI50 [7]: 13.6 µM (inactive)

COc1cc(C2c3cc4c(cc3[C@@H](Nc3ccc5c(c3)OCCO5)C3COC(=O)[C@H]23)OCO4)cc(OC)c1O (some centres not stated)
GI50 [1]: 1.84 µM (inactive)
GI50 [2]: 0.745 µM (active)
GI50 [3]: 0.109 µM (active)
GI50 [4]: 3.98 µM (inactive)
GI50 [5]: 0.303 µM (active)
GI50 [9]: 0.525 µM (active)
GI50 [6]: 3.44 µM (inactive)
GI50 [7]: 0.622 µM (active)
GI50 [8]: 0.273 µM (active)

COc1cc2c3c(c1OC)C1(C=CC(=O)C=C1)C[C@H]3N(C)CC2 [PRONUCIFERINE]
GI50 [1]: > 100 µM (inactive)
GI50 [2]: > 100 µM (inactive)
GI50 [3]: > 100 µM (inactive)
GI50 [4]: > 100 µM (inactive)
GI50 [5]: > 100 µM (inactive)
GI50 [9]: > 100 µM (inactive)
GI50 [6]: > 100 µM (inactive)
GI50 [7]: > 100 µM (inactive)
GI50 [8]: > 100 µM (inactive)
